Results published in ChEMBL document CHEMBL1201862, “PubChem BioAssay data set” (2004).
Activity calls are given as the source filed them.

How the values were obtained:
[1] = Shn3 3'UTR reporter inhibitors, dose response, cell-based, Clone20 osteoblasts, firefly luciferase, cherry-picked (AID 624132); format: functional;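 also: firefly luciferase luminescence from reporter carrying the Shn3 3'UTR in osteoblasts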
CHO = assay: cytotoxicity in TLR9-MyD88 CHO cells, dose response, cytotoxicity control for TLR9-MyD88 binding inhibitor project, cell-based, luminescence (AID 588339); format: functional, hamster; settings: Cricetulus griseus;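 also: CHO cells stably coexpressing TLR9 and MyD88 fusions from primary screen; compound exposure lasted 48 hours before viability readout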
[2] = inhibitors of SNCA 5'UTR-driven reporter translation, confirmation, H4 neuroglioma cells, luminescence (AID 1988); format: functional, cell-based
Beta-galactosidase = Beta-galactosidase (Escherichia coli, UniProt Q8VNN2); assay: PubChem AID 485352; format: functional
[3] = molecular target: Heat shock protein HSP 90-alpha (Homo sapiens, UniProt P07900); format: functional, organism-based
[4] = Luminescence Cell-Based Dose Response HTS to Identify Inhibitors of 5'UTR Stem-Loop Driven Prion Protein mRNA Translation in H4 Neuroglioblastoma Cells. [Related pubchem assays: 1827 (Project Summary), 1813 (Primary HTS)]; format: functional
[5] = inhibitors of firefly luciferase expression or activity, dose response, H4 neuroglioma cells, luminescence (AID 1990); format: functional, cell-based
[6] = HepG2 cell cytotoxicity, dose response, cytotoxicity control for Shn3 inhibitor project, CellTiter-Glo, cherry-picked (AID 624134); format: functional, cell-based
Beta Lactamase = Beta Lactamase (Pseudomonas aeruginosa, UniProt Q932Y6); assay: beta-lactamase reporter inhibitor potency, dose response, artefact control for TLR9-MyD88 binding inhibitor project, BLA reporter cells, FRET fluorescence (AID 588341); format: cell-based;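 also: cell based assay in CHO-K1 cells stably expressing beta-lactamase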
[7] = Luminescence Cell-Based Dose Retest to Confirm Inhibitors of Cancer Stem Cells. [Related pubchem assays (depositor defined):AID2717, AID2721]; format: functional; settings: Homo sapiens
[8] = control 3'UTR Renilla luciferase suppression, dose response, counter-screen for Shn3 inhibitor project, cell-based, Clone20-Shn3RL, cherry-picked (AID 624133); format: functional
[9] = molecular target: T1, Type-1 angiotensin II receptor (Homo sapiens, UniProt P30556); assay: AT1 receptor antagonists, dose response, selectivity assay for APJ receptor antagonist project, cell-based, uHTS hits (AID 463214); format: functional;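 also: antagonist potency against angiotensin II stimulated AT1 response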
T1 sequence (P30556 whole entry): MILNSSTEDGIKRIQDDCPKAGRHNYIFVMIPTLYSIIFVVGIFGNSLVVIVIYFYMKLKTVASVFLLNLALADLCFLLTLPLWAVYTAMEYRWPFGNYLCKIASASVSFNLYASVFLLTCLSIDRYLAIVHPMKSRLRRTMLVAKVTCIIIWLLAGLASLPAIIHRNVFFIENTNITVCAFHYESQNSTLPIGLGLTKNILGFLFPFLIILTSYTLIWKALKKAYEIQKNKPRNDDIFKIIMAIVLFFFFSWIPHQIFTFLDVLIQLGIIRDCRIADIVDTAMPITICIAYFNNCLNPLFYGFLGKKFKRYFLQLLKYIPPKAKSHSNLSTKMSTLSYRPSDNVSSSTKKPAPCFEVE

INS1 = assay: beta cell apoptosis inhibitors, cytokine rescue, dose response, luminescence, retest (AID 449756); format: functional, cell-based; settings: Rattus norvegicus;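 also: cell death triggered by IL-1 beta plus TNF-alpha plus IFN-gamma mixture; protective hits raise ATP signal compared with cytokine alone wells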
[10] = molecular target: T2, Endoribonuclease toxin MazF (Escherichia coli K-12, UniProt P0AE70); assay: SAR analysis of small molecule activators of the MazEF TA System via a fluorescence-based single-stranded RNase assay counterscreen. [Related pubchem assays (depositor defined):AID504720, AID504743]; format: functional
T2 sequence (P0AE70 whole entry): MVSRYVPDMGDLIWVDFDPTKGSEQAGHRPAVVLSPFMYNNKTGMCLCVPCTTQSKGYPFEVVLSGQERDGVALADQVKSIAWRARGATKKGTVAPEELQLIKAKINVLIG

[11] = molecular target: T2, Endoribonuclease toxin MazF; assay: MazF endoribonuclease activators, SAR follow-up, biochemical, fluorescence, single-stranded RNA substrate (AID 588603); format: functional
[12] = molecular target: T2, Endoribonuclease toxin MazF; assay: MazF toxin RNase activators, dose response, biochemical, fluorescence, single-stranded RNA substrate, uHTS hits (AID 588481); format: functional
MEF = assay: SAR analysis of small molecule cytotoxicity of MazEF TA System activators in embryonic fibroblast (MEF) cells. [Related pubchem assays (depositor defined):AID504720, AID504743]; format: functional; settings: Mus musculus
[13] = molecular target: T2, Endoribonuclease toxin MazF; assay: fluorescent RNA oligo signal without MazF, dose response, counter-screen for MazEF activator project, biochemical, fluorescence, single-stranded RNase substrate (AID 588502); format: functional
Caspase-3 [14] = molecular target: T3, Caspase-3 (Homo sapiens, UniProt P42574); assay: SAR Analysis of small molecule inhibitors of Sentrin-specific proteases (SENPs) using a Caspase-3 Selectivity assay. [Related pubchem assays (depositor defined):AID2540, AID2599, AID434973, AID489001]; format: functional
T3 sequence (P42574 whole entry): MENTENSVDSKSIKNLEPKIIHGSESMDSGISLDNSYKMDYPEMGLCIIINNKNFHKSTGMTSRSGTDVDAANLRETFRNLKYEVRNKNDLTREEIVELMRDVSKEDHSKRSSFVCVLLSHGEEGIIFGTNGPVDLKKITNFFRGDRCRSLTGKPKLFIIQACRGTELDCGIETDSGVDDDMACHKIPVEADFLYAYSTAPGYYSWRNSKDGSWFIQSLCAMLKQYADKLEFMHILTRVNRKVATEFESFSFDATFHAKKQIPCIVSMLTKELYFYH

[15] = molecular target: T4, Sentrin-specific protease 6 (Homo sapiens, UniProt Q9GZR1); assay: SENP6 protease inhibitors, SAR follow-up, biochemical, luminescence, set 2 (AID 588598); format: functional
T4 sequence (Q9GZR1 whole entry): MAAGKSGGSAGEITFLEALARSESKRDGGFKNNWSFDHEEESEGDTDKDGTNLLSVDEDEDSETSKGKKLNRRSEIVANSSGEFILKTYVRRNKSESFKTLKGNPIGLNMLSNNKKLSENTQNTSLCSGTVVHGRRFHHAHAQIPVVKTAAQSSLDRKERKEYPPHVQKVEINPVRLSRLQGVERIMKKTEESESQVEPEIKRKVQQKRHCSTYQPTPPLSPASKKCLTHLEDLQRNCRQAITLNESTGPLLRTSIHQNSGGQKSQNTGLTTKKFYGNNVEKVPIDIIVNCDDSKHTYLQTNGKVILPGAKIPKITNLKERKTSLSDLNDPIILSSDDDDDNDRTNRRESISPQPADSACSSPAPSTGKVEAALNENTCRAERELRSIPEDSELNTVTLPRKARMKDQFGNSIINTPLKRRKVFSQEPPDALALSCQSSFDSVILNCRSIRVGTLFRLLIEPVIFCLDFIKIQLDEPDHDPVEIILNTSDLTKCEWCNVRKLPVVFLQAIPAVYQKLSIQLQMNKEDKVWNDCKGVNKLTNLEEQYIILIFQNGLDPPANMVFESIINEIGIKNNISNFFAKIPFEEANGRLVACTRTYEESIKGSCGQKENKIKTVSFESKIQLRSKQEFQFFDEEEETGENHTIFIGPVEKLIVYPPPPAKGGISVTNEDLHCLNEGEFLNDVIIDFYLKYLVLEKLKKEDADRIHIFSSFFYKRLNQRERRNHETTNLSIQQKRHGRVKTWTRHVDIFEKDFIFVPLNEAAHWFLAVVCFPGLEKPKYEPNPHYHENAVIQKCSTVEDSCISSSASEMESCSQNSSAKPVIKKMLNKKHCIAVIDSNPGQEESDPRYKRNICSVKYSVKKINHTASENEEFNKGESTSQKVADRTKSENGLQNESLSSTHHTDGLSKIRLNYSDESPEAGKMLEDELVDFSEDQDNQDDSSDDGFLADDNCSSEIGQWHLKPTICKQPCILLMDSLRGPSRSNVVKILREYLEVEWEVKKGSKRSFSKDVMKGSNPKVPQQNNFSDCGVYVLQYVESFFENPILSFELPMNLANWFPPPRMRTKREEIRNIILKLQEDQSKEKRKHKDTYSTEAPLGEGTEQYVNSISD

[16] = molecular target: T4, Sentrin-specific protease 6; assay: SAR Analysis of small molecule inhibitors of Sentrin-specific protease 6 (SENP6) using a Luminescent assay. [Related pubchem assays (depositor defined):AID2582, AID2599]; format: functional
[17] = molecular target: T5, Sentrin-specific protease 7 (Homo sapiens, UniProt Q9BQF6); assay: SENP7 protease inhibitors, SAR follow-up, biochemical, luminescence, set 2 (AID 588600); format: functional
T5 sequence (Q9BQF6 whole entry): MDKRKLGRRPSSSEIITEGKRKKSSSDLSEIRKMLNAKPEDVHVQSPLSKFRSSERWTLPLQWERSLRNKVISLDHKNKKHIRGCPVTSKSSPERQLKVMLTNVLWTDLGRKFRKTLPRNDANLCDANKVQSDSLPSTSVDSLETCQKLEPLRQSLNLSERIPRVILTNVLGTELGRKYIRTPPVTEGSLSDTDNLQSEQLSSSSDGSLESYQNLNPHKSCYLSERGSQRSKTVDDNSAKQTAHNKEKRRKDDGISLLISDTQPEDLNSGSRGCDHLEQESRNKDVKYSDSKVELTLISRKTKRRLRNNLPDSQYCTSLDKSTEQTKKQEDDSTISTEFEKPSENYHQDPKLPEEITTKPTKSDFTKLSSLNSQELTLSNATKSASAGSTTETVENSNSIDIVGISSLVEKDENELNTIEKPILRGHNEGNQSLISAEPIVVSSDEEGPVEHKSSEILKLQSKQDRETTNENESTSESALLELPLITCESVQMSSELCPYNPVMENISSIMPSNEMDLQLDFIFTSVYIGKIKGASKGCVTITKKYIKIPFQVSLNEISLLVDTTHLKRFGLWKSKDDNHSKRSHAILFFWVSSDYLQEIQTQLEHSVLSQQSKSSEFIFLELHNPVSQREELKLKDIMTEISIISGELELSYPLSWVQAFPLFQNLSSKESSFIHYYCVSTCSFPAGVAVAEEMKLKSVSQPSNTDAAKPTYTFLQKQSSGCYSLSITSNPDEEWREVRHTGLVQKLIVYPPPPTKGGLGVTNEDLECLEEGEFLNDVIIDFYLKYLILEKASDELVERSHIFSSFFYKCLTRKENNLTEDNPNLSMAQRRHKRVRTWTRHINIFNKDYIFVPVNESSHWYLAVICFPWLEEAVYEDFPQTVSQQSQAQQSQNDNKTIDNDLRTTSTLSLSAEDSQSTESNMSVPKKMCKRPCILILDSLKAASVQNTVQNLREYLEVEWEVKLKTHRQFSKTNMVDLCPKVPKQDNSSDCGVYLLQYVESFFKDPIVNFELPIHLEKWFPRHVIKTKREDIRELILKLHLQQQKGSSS

[18] = molecular target: T5, Sentrin-specific protease 7; assay: SENP7 protease inhibitors, SAR follow-up, biochemical, luminescence (AID 504497); format: functional
Caspase-3 [19] = molecular target: T3, Caspase-3; assay: caspase-3 inhibitors as off-family protease, SAR follow-up, selectivity assay for SENP protease inhibitor project, biochemical, luminescence, set 2 (AID 588599); format: functional
[20] = molecular target: T6, Sentrin-specific protease 8 (Homo sapiens, UniProt Q96LD8); assay: SENP8 protease inhibitors, SAR follow-up, biochemical, luminescence (AID 504501); format: functional
T6 sequence (Q96LD8 whole entry): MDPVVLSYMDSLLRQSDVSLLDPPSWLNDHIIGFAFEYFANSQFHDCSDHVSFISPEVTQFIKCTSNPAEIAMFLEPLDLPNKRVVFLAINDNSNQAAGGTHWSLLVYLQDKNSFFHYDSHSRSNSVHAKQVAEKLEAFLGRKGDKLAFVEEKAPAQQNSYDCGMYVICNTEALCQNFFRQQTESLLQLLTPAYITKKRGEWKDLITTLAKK

[21] = molecular target: T6, Sentrin-specific protease 8; assay: SENP8 protease inhibitors, SAR follow-up, biochemical, luminescence, set 2 (AID 588601); format: functional

Chain of Beta-galactosidase (Q8VNN2 whole entry): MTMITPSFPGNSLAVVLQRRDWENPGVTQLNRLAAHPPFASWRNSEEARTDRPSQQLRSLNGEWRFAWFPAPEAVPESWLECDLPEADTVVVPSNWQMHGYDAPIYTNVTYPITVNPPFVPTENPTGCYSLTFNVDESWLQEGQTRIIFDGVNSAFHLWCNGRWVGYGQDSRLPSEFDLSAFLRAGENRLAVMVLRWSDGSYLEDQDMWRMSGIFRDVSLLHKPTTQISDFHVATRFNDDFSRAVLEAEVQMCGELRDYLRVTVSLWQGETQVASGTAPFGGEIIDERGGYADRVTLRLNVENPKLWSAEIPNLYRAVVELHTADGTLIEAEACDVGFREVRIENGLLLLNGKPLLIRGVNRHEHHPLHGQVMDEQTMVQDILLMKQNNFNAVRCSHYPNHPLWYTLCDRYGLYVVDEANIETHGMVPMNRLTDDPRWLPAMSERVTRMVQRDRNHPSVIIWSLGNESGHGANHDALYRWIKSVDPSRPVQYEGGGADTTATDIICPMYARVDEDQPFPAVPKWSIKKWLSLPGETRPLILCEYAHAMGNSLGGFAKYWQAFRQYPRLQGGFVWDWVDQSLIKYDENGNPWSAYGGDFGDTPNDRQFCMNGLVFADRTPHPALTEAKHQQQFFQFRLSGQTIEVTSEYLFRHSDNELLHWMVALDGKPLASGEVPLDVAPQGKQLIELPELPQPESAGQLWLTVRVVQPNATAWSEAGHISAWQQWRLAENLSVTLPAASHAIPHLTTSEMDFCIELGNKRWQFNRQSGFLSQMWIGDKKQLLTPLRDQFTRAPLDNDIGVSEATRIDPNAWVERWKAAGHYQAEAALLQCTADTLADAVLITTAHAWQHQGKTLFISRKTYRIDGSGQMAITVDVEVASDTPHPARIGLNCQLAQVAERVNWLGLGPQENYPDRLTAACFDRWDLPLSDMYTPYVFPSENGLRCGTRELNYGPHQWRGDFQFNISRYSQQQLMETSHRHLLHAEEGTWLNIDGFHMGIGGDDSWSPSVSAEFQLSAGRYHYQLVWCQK
Chain of Beta Lactamase (Q932Y6 whole entry): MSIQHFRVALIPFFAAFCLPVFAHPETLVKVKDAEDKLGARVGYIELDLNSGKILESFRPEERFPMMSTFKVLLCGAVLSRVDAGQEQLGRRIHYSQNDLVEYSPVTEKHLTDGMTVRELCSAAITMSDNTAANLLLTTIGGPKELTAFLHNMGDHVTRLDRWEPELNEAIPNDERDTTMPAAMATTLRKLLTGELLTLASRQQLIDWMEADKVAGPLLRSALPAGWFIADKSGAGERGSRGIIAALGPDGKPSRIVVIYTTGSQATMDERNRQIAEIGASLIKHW

COc1ccc(OC)c(NC(=O)c2nc(S(=O)(=O)Cc3ccccc3)ncc2Cl)c1
inactive: EC50 (Beta-galactosidase) > 40 µM
> 120 µM (not active): EC50 [4]
active: AC50 [1] 2.08 µM | IC50 (CHO) 1.05 µM | EC50 [2] 11.6 µM | AC50 [3] 2.95 µM | EC50 [5] 12.2 µM | AC50 [6] 13.7 µM | IC50 (Beta Lactamase) 6.72 µM | AC50 [7] 3.48 µM | AC50 [8] 3.79 µM | IC50 [9] 5.87 µM | AC50 (INS1) 5.38 µM

Cc1ccc2nc(NCCc3ccc(Cl)cc3)c3nncn3c2c1
inactive: EC50 [10] > 99 µM | EC50 [12] 33.1 µM | CC50 (MEF) > 99 µM | EC50 [13] > 99 µM
active: EC50 [11] 17.7 µM

O=C(Nc1nc2ccccc2s1)c1cccs1
active: IC50 (Caspase-3 [14]) 72 µM | IC50 [15] 2.07 µM | IC50 [17] 2.67 µM | IC50 [18] 2.5 µM | IC50 (Caspase-3 [19]) 6.86 µM | IC50 [21] 2.2 µM
inactive: IC50 [16] > 99 µM | IC50 [20] > 99 µM
